Legend:
[1] = test system: HCV genotype 1; assay: study of alisporivir in HCV Genotype 1 non responder patients, decline in HCV RNA; type: in vivo, human; details: first week of treatment, with peg-IFNα2a plus RBV
Protocol: The efficacy of the therapy regimen may be monitored using standard protocols. Treatment may be followed by determinations of HCV in serum and measurement of serum ALT (alanine-aminotransferase) levels. For example, the patients may be assessed for the presence of HCV RNA in their plasma. HCV RNA (IU/mL) can be measured at regular intervals during the treatment, e.g., at Day 1 (pre-dose and 4, 8, and 12 hours post-dose) and pre-dose at Day 2, Day 3, Day 8, Day 15, Day 29, and at Week 12, Week 24, Week 36, Week 48, Week 72 (when applicable), and at follow up. In addition, the HCV strains in the patient can be sequenced and assessed for identification of mutations selecting for resistance.
In addition, study of the use of alisporivir in HCV Genotype 1 non responder patients addressed the utility of a 400 mg BID dose regimen versus the same total daily dose given once daily (800 mg QD) during the first week of treatment, both with peg-IFNα2a plus RBV, and the possible relationships between Cmax, AUC, or Cmin and antiviral effect at the end of that treatment period. In this hard to treat patient population, the 400 mg BID dose provided greater decline in HCV RNA from baseline (−1.41 log10 IU/m1) than the 800 mg QD dose (−0.70 log10 IU/ml). […]

[2] = test system: HCV genotype 1; assay: phase 2 study of genotype 1 treatment-naive patients, sustained virologic response; type: in vivo, human; details: alisporivir 600 mg BID for one week, then 600 mg QD, 48 week treatment, combined with peg-IFNa2a
Description: The virological response parameters are: rapid virologic response at treatment week 4 (RVR 4) defined by undetectable serum HCV-RNA at treatment week 4; early virological response (EVR), defined by at least 2 log10 IU/mL reduction in HCV-RNA compared to baseline (partial EVR) or undetectable serum HCV-RNA (complete EVR) at treatment week 12; sustained virological response (SVR24), defined as absence of HCV-RNA from serum by a sensitive Polymerase Chain Reaction (PCR) assay 24 weeks following end of therapy or the HCV RNA is undetectable (by LOD) 24 weeks after end of treatment; End of Treatment Response (ETR): HCV RNA undetectable (by LOD) at treatment end (completed or prematurely discontinued).

[3] = boceprevir recipients; cited from earlier work

Compound	decline in HCV RNA from baseline ([1]; 400 mg BID) [log10 IU/m1]	decline in HCV RNA from baseline ([1]; 800 mg QD) [log10 IU/ml]	rates of achievement of sustained virologic response (SVR) versus peg-IFNα2a [2]	treatment-emergent anemia versus pegylated interferon and ribavirin recipients [3]
C/C=C/C[C@@H](C)[C@@H](O)[C@H]1C(=O)N[C@@H](CC)C(=O)N(C)[C@H](C)C(=O)N(CC)[C@@H](C(C)C)C(=O)N[C@@H](C(C)C)C(=O)N(C)[C@@H](CC(C)C)C(=O)N[C@@H](C)C(=O)N[C@H](C)C(=O)N(C)[C@@H](CC(C)C)C(=O)N(C)[C@@H](CC(C)C)C(=O)N(C)[C@@H](C(C)C)C(=O)N1C [alisporivir, Alisporivir]	−1.41	−0.70	superior	–
CC(C)(C)NC(=O)N[C@H](C(=O)N1C[C@H]2[C@@H]([C@H]1C(=O)NC(CC1CCC1)C(=O)C(N)=O)C2(C)C)C(C)(C)C (stereo partly shown) [boceprevir]	–	–	–	significantly higher

From patent US20150328280A1, “ALISPORIVR FOR TREATMENT OF HEPATITIS C VIRUS INFECTION” (priority 2011, published 2015)
